Test results as given in patent US6525001B1, “Substituted pyrimidine and pyridine herbicides” (Mid-American Commercialization Corporation, priority 1997, dated 2003).

How the values were obtained:
Assay in all cases: Test B pre-/postemergence
Type in all cases: in vivo
Design in all cases: key: 0 is no effect; 10 is complete control
[1] = test system: bedstraw (Galium aparine)
In short: (§1)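 Response scores run from 0, meaning no effect, to 10, meaning complete control, assigned by eye relative to controls twelve to sixteen days after spraying. Treatment was both preemergence on planted seed and postemergence on plants at the 1- to 4-leaf stage.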

[2] = test system: cocklebur (Xanthium strumarium)
In short: as §1

corn (Zea mays) = test system: corn (Zea mays)
In short: as §1

[3] = test system: crabgrass (Digitaria sanguinalis)
In short: as §1

[4] = test system: giant foxtail (Setaria faberii)
In short: as §1

[5] = test system: momingglory (Ipomoea hederacea)
In short: as §1

[6] = test system: pigweed (Amaranthus retroflexus)
In short: as §1

[7] = test system: purple nutsedge (Cyperus rotundus)
In short: as §1

rape (Brassica napus) = test system: rape (Brassica napus)
In short: as §1

soybean (Glycine max) = test system: soybean (Glycine max)
In short: as §1

[8] = test system: sugar beet (Beta vulgaris)
In short: as §1

[9] = test system: velvetleaf (Abutilon theophrasti)
In short: as §1

[10] = test system: wheat (Triticum aestivum)
In short: as §1

wild oat (Avena fatua) = test system: wild oat (Avena fatua)
In short: as §1

[11] = Preemergence, Rate 62 g/ha, scale of 0 to 10

Cc1cnc(-c2ccc(C(F)(F)F)cc2)nc1C(=O)c1ccc(C(F)(F)F)cc1 [Compound 74]
Plant response rating, Bedstraw [1, 11]: 0 | Bedstraw plant response rating ([1]; Rate 62 g/ha, Postemergence): 1 | Bedstraw plant response rating ([1]; Rate 125 g/ha, Postemergence): 1 | Plant response rating, Bedstraw ([1]; Rate 125 g/ha, Preemergence): 0 | Plant response rating, Bedstraw ([1]; Rate 250 g/ha, Postemergence): 2 | Plant response rating, Bedstraw ([1]; Rate 250 g/ha, Preemergence): 0 | Plant response rating, Bedstraw ([1]; Rate 500 g/ha, Postemergence): 6 | Plant response rating, Bedstraw ([1]; Rate 500 g/ha, Preemergence): 0 | Plant response rating, Cocklebur [2, 11]: 0 | Cocklebur plant response rating ([2]; Rate 62 g/ha, Postemergence): 1 | Cocklebur plant response rating ([2]; Rate 125 g/ha, Postemergence): 5 | Plant response rating, Cocklebur ([2]; Rate 125 g/ha, Preemergence): 0 | Plant response rating, Cocklebur ([2]; Rate 250 g/ha, Postemergence): 5 | Plant response rating, Cocklebur ([2]; Rate 250 g/ha, Preemergence): 0 | Plant response rating, Cocklebur ([2]; Rate 500 g/ha, Postemergence): 5 | Plant response rating, Cocklebur ([2]; Rate 500 g/ha, Preemergence): 0 | Plant response rating, Corn (corn (Zea mays); [11]): 0 | Corn plant response rating (corn (Zea mays); Rate 62 g/ha, Postemergence): 1 | Corn plant response rating (corn (Zea mays); Rate 125 g/ha, Postemergence): 1 | Plant response rating, Corn (corn (Zea mays); Rate 125 g/ha, Preemergence): 0 | Plant response rating, Corn (corn (Zea mays); Rate 250 g/ha, Postemergence): 1 | Plant response rating, Corn (corn (Zea mays); Rate 250 g/ha, Preemergence): 0 | Plant response rating, Corn (corn (Zea mays); Rate 500 g/ha, Postemergence): 1 | Plant response rating, Corn (corn (Zea mays); Rate 500 g/ha, Preemergence): 0 | Plant response rating, Crabgrass [3, 11]: 0 | Crabgrass plant response rating ([3]; Rate 62 g/ha, Postemergence): 0 | Crabgrass plant response rating ([3]; Rate 125 g/ha, Postemergence): 0 | Plant response rating, Crabgrass ([3]; Rate 125 g/ha, Preemergence): 0 | Plant response rating, Crabgrass ([3]; Rate 250 g/ha, Postemergence): 1 | Plant response rating, Crabgrass ([3]; Rate 250 g/ha, Preemergence): 0 | Plant response rating, Crabgrass ([3]; Rate 500 g/ha, Postemergence): 3 | Plant response rating, Crabgrass ([3]; Rate 500 g/ha, Preemergence): 1 | Plant response rating, Giant foxtail [4, 11]: 0 | Giant foxtail plant response rating ([4]; Rate 62 g/ha, Postemergence): 0 | Giant foxtail plant response rating ([4]; Rate 125 g/ha, Postemergence): 0 | Plant response rating, Giant foxtail ([4]; Rate 125 g/ha, Preemergence): 0 | Plant response rating, Giant foxtail ([4]; Rate 250 g/ha, Postemergence): 1 | Plant response rating, Giant foxtail ([4]; Rate 250 g/ha, Preemergence): 0 | Plant response rating, Giant foxtail ([4]; Rate 500 g/ha, Postemergence): 1 | Plant response rating, Giant foxtail ([4]; Rate 500 g/ha, Preemergence): 0 | Plant response rating, Morningglory [5, 11]: 0 | Morningglory plant response rating ([5]; Rate 62 g/ha, Postemergence): 1 | Morningglory plant response rating ([5]; Rate 125 g/ha, Postemergence): 1 | Plant response rating, Morningglory ([5]; Rate 125 g/ha, Preemergence): 0 | Plant response rating, Morningglory ([5]; Rate 250 g/ha, Postemergence): 7 | Plant response rating, Morningglory ([5]; Rate 250 g/ha, Preemergence): 0 | Plant response rating, Morningglory ([5]; Rate 500 g/ha, Postemergence): 7 | Plant response rating, Morningglory ([5]; Rate 500 g/ha, Preemergence): 0 | Plant response rating, Redroot pigweed [6, 11]: 0 | Redroot pigweed plant response rating ([6]; Rate 62 g/ha, Postemergence): 2 | Redroot pigweed plant response rating ([6]; Rate 125 g/ha, Postemergence): 2 | Plant response rating, Redroot pigweed ([6]; Rate 125 g/ha, Preemergence): 0 | Plant response rating, Redroot pigweed ([6]; Rate 250 g/ha, Postemergence): 8 | Plant response rating, Redroot pigweed ([6]; Rate 250 g/ha, Preemergence): 0 | Plant response rating, Redroot pigweed ([6]; Rate 500 g/ha, Postemergence): 8 | Plant response rating, Redroot pigweed ([6]; Rate 500 g/ha, Preemergence): 0 | Plant response rating, Nutsedge [7, 11]: 0 | Nutsedge plant response rating ([7]; Rate 62 g/ha, Postemergence): 0 | Nutsedge plant response rating ([7]; Rate 125 g/ha, Postemergence): 0 | Plant response rating, Nutsedge ([7]; Rate 125 g/ha, Preemergence): 0 | Plant response rating, Nutsedge ([7]; Rate 250 g/ha, Postemergence): 0 | Plant response rating, Nutsedge ([7]; Rate 250 g/ha, Preemergence): 0 | Plant response rating, Nutsedge ([7]; Rate 500 g/ha, Preemergence): 0 | Plant response rating, Rape (rape (Brassica napus); [11]): 0 | Rape plant response rating (rape (Brassica napus); Rate 62 g/ha, Postemergence): 1 | Rape plant response rating (rape (Brassica napus); Rate 125 g/ha, Postemergence): 1 | Plant response rating, Rape (rape (Brassica napus); Rate 125 g/ha, Preemergence): 0 | Plant response rating, Rape (rape (Brassica napus); Rate 250 g/ha, Postemergence): 1 | Plant response rating, Rape (rape (Brassica napus); Rate 250 g/ha, Preemergence): 0 | Plant response rating, Rape (rape (Brassica napus); Rate 500 g/ha, Postemergence): 3 | Plant response rating, Rape (rape (Brassica napus); Rate 500 g/ha, Preemergence): 0 | Plant response rating, Soybean (soybean (Glycine max); [11]): 0 | Soybean plant response rating (soybean (Glycine max); Rate 62 g/ha, Postemergence): 2 | Soybean plant response rating (soybean (Glycine max); Rate 125 g/ha, Postemergence): 2 | Plant response rating, Soybean (soybean (Glycine max); Rate 125 g/ha, Preemergence): 0 | Plant response rating, Soybean (soybean (Glycine max); Rate 250 g/ha, Postemergence): 2 | Plant response rating, Soybean (soybean (Glycine max); Rate 250 g/ha, Preemergence): 0 | Plant response rating, Soybean (soybean (Glycine max); Rate 500 g/ha, Postemergence): 3 | Plant response rating, Soybean (soybean (Glycine max); Rate 500 g/ha, Preemergence): 0 | Plant response rating, Sugarbeets [8, 11]: 0 | Sugarbeets plant response rating ([8]; Rate 62 g/ha, Postemergence): 1 | Sugarbeets plant response rating ([8]; Rate 125 g/ha, Postemergence): 2 | Plant response rating, Sugarbeets ([8]; Rate 125 g/ha, Preemergence): 0 | Plant response rating, Sugarbeets ([8]; Rate 250 g/ha, Postemergence): 6 | Plant response rating, Sugarbeets ([8]; Rate 250 g/ha, Preemergence): 0 | Plant response rating, Sugarbeets ([8]; Rate 500 g/ha, Postemergence): 7 | Plant response rating, Sugarbeets ([8]; Rate 500 g/ha, Preemergence): 0 | Plant response rating, Velvetleaf [9, 11]: 0 | Velvetleaf plant response rating ([9]; Rate 62 g/ha, Postemergence): 1 | Velvetleaf plant response rating ([9]; Rate 125 g/ha, Postemergence): 1 | Plant response rating, Velvetleaf ([9]; Rate 125 g/ha, Preemergence): 0 | Plant response rating, Velvetleaf ([9]; Rate 250 g/ha, Postemergence): 2 | Plant response rating, Velvetleaf ([9]; Rate 250 g/ha, Preemergence): 0 | Plant response rating, Velvetleaf ([9]; Rate 500 g/ha, Postemergence): 2 | Plant response rating, Velvetleaf ([9]; Rate 500 g/ha, Preemergence): 0 | Plant response rating, Wheat [10, 11]: 0 | Wheat plant response rating ([10]; Rate 62 g/ha, Postemergence): 1 | Wheat plant response rating ([10]; Rate 125 g/ha, Postemergence): 1 | Plant response rating, Wheat ([10]; Rate 125 g/ha, Preemergence): 0 | Plant response rating, Wheat ([10]; Rate 250 g/ha, Postemergence): 1 | Plant response rating, Wheat ([10]; Rate 250 g/ha, Preemergence): 0 | Plant response rating, Wheat ([10]; Rate 500 g/ha, Postemergence): 2 | Plant response rating, Wheat ([10]; Rate 500 g/ha, Preemergence): 0 | Plant response rating, Wild oats (wild oat (Avena fatua); [11]): 0 | Wild oats plant response rating (wild oat (Avena fatua); Rate 62 g/ha, Postemergence): 1 | Wild oats plant response rating (wild oat (Avena fatua); Rate 125 g/ha, Postemergence): 1 | Plant response rating, Wild oats (wild oat (Avena fatua); Rate 125 g/ha, Preemergence): 0 | Plant response rating, Wild oats (wild oat (Avena fatua); Rate 250 g/ha, Postemergence): 1 | Plant response rating, Wild oats (wild oat (Avena fatua); Rate 250 g/ha, Preemergence): 0 | Plant response rating, Wild oats (wild oat (Avena fatua); Rate 500 g/ha, Postemergence): 1 | Plant response rating, Wild oats (wild oat (Avena fatua); Rate 500 g/ha, Preemergence): 0
